Data set [1] relates to PDA patients. The conditions noted are these: standard of care; cited from earlier work.
Data set [2] has as its system pancreatic cancer patient. The data set can be described thus: Patient treated with neoadjuvant paricalcitol plus gemcitabine/abraxane. Format: in vivo, human. On the procedure: Thus, in some examples, paricalcitol is administered at 5 or 10 μg IV three times weekly for two-three weeks before surgery. […] Paricalcitol can be given for 28 days approximately prior to planned surgery, and can be continued up to the day before surgery, since there is no relevant toxicity of this micronutrient. Last dose can be 24 h before surgery (if surgery is delayed, and additional days of therapy may be given to reach the day before surgery).

The conditions of data set [3]: cited from earlier work.
The mark [4] stands for this setting: 28 days paricalcitol with one cycle of gemcitabine/abraxane.

On to `Cl.Nc1ccn([C@@H]2O[C@H](CO)[C@@H](O)C2(F)F)c(=O)n1` [gemcitabine, 2′-Deoxy-2′,2′-difluorocytidine monohydrochloride], for which the “benefit to PDA patients” value in data set [1] is given as 1.5 month.
In the case of `C[C@H](/C=C/[C@H](C)C(C)(C)O)[C@H]1CC[C@H]2/C(=C/C=C3C[C@@H](O)C[C@H](O)C3)CCC[C@]12C` [Paricalcitol, 19-nor-1,25-(OH)2-vitamin D2], in data set [2] (setting [4]), the “adverse clinical effects before surgery” value is “No adverse clinical effects” and the calcium levels result was “no elevation calcium levels”. Also, the “histological analysis of resected tumor” value in data set [2] (after surgery) is listed as “granulomas with few cancer cells”. In data set [2] (reduced from 120 U/mL, normal range 0-37 U/mL), the “serum CA 19-9 level after treatment” value stood at 40 U/mL. For the same molecule, the “phosphorus and calcium levels” value in data set [3] (first 30 days of treatment) is “stable phosphorus and calcium levels”. Moreover, in data set [3] (over 600 patients), the mean plasma clearance is 1.75 L/h.

(Values after patent publication US9895381B2, “Vitamin D receptor agonists to treat diseases involving CXCL12 activity” (Salk Institute for Biological Studies, priority 2013, dated 2018).)
